Patent US20130143929A1, “FUNGICIDAL IMIDAZOLES” (EI DU PONT DE NEMOURS AND COMPANY, priority 2010, published 2013)
Marks after values point to notes of the source that are not given here.

Legend:
Assay type in all cases: in vivo
[1] = system: Puccinia recondite f. sp. tritici (the causal agent of wheat leaf rust); experiment: Test A: wheat leaf rust, preventive spray on wheat seedlings, visual disease rating; settings: wheat leaf rust, preventive spray on wheat seedlings; asterisk: 40 ppm test suspension
Method in brief: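 This was a preventive test: Puccinia recondite f. sp. tritici inoculum was applied one day after compound spray to run-off. Test suspensions were made in 50/50 acetone/water with 250 ppm surfactant, at 200 ppm (800 g/ha equivalent) or 40 ppm. Visual ratings of % disease control relative to controls were made after 24 h of saturated humidity and 7 growth-chamber days, all at 20° C.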

[2] = system: Blumeria graminis f. sp. tritici (also known as Erysiphe graminis f. sp. tritici, the causal agent of wheat powdery mildew); experiment: Test D: wheat powdery mildew, preventive spray on wheat seedlings, visual disease rating; settings: wheat powdery mildew, preventive spray on wheat seedlings; asterisk: 40 ppm test suspension
Method in brief: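 Preventive test: seedlings sprayed to run-off and inoculated with powdery mildew spores one day later. Suspensions were made in 50/50 acetone/water with 250 ppm Trem 014 surfactant (200 ppm equals 800 g/ha). Visual ratings after 8 days at 20 °C give percent disease control versus controls.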

[3] = system: Septoria tritici (the causal agent of wheat leaf blotch); experiment: Test B: wheat leaf blotch, preventive spray on wheat seedlings, visual disease rating; settings: wheat leaf blotch, preventive spray on wheat seedlings; asterisk: 40 ppm test suspension
Method in brief: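 Preventive test: Septoria tritici spores applied one day after run-off spraying of seedlings (200 ppm equals 800 g/ha; some tests 40 ppm). After 48 h at 24 °C saturated atmosphere and 19 days at 20 °C, disease scored visually as % control relative to untreated plants.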

[4] = system: Botrytis cinerea (the causal agent of tomato Botrytis); experiment: Test C: tomato Botrytis, preventive spray on tomato seedlings, visual disease rating; settings: tomato Botrytis, preventive spray on tomato seedlings; asterisk: 40 ppm test suspension
Method in brief: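 Preventive test: B. cinerea spore inoculation one day after tomato seedlings were sprayed to run-off with compound suspended in 50/50 acetone–water plus 250 ppm surfactant. Plants held 48 h at 20° C in saturated air, then 3 days at 24° C; visual ratings scored 100 (full control) to 0 versus controls; some entries used 40 ppm.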

Row | SMILES | Test A rating (100 = 100% disease control, 0 = no disease control relative to the controls) [1] | Test D rating (100 = 100% disease control, 0 = no disease control relative to the controls) [2] | Test B rating (100 = 100% disease control, 0 = no disease control relative to the controls) [3] | Test C rating (100 = 100% disease control, 0 = no disease control relative to the controls) [4]
1 | COc1ccc(C(O)c2c(C)nc(Cl)n2-c2c(F)cccc2Br)c(C)c1 (stereo not shown) [compound 213] | 100* % | 91* % | 100* % | 100* %
2 | COc1ccc(-n2c(C(O)c3ccc(F)cc3Cl)cnc2C)c(OC)c1 (stereo not shown) [compound 214] | 0* % | 0* % | 0* % | 0* %
3 | COc1ccc(C(O)c2c(Br)nc(C)n2-c2ccc(F)cc2Cl)c(F)c1 (stereo not shown) [compound 302] | 100* % | 64* % | 100* % | 100* %
4 | COc1ccc(C(O)c2cnc(C)n2-c2ccc(F)cc2Br)c(F)c1 (stereo not shown) [compound 303] | 74* % | 0* % | 43* % | 8* %
5 | Cc1ncc(C(O)c2c(F)cc(Cl)cc2F)n1-c1ccc(F)cc1Br (stereo not shown) [compound 305] | 9* % | 0* % | 17* % | 21* %
6 | COc1ccc(C(O)c2c(Cl)nc(C)n2-c2ccc(F)cc2F)c(F)c1 (stereo not shown) [compound 306] | 100* % | 0* % | 100* % | 97* %
7 | COc1ccc(C(O)c2c(Cl)nc(C)n2-c2ccc(F)cc2F)c(Cl)c1 (stereo not shown) [compound 307] | 99* % | 0* % | 100* % | 0* %
8 | Cc1nc(Br)c(C(O)c2c(F)cc(Cl)cc2F)n1-c1ccc(F)cc1Br (stereo not shown) [compound 308] | 100* % | 93* % | 100* % | 100* %
9 | Cc1nc(Br)c(C(O)c2ccc(F)cc2Br)n1-c1ccc(F)cc1F (stereo not shown) [compound 309] | 100* % | 64* % | 100* % | 65* %
10 | COc1ccc(C(O)c2c(Br)nc(C)n2-c2ccc(F)cc2Br)c(F)c1 (stereo not shown) [compound 310] | 100* % | 56* % | 100* % | 100* %
11 | Cc1ncc(C(O)c2ccc(C#N)cc2F)n1-c1ccc(F)cc1Br (stereo not shown) [compound 311] | 9* % | 0* % | 5* % | 0* %
12 | COc1ccc(C(O)c2cnc(C)n2-c2ccc(F)cc2Br)c(Cl)c1 (stereo not shown) [compound 312] | 28* % | 0* % | 12* % | 0* %
13 | Cc1nc(Cl)c(C(O)c2ccc(F)cc2Br)n1-c1ccc(F)cc1F (stereo not shown) [compound 313] | 100* % | 0* % | 100* % | 17* %
14 | COc1ccc(C(O)c2c(Cl)nc(C)n2-c2ccc(F)cc2Br)c(F)c1 (stereo not shown) [compound 314] | 100* % | 47* % | 100* % | 99* %
15 | Cc1cc(F)ccc1C(O)c1c(Cl)nc(C)n1-c1c(F)cc(F)cc1Br (stereo not shown) [compound 315] | 99* % | 96* % | 100* % | 96* %
16 | Cc1nc(Cl)c(C(O)c2ccc(F)cc2F)n1-c1c(F)cccc1Br (stereo not shown) [compound 316] | 100* % | 95* % | 100* % | 99* %
17 | Cc1cccc(Cl)c1-n1c(C)nc(Br)c1C(O)c1ccc(F)cc1F (stereo not shown) [compound 317] | 100* % | 56* % | 89* % | 96* %
18 | COc1ccc(-n2c(Cl)nc(Cl)c2C(O)c2ccc(F)cc2Cl)c(F)c1 (stereo not shown) [compound 319] | 100* % | 0* % | 100* % | 99* %
19 | Cc1cccc(Cl)c1-n1c(C)nc(Cl)c1C(O)c1ccc(F)cc1F (stereo not shown) [compound 320] | 99* % | 79* % | 100* % | 96* %
20 | Cc1ncc(C(O)c2ccc(F)cc2F)n1-c1ccc(F)cc1Br (stereo not shown) [compound 321] | 0* % | 0* % | 0* % | 0* %
21 | COc1cc(F)c(C(O)c2cnc(C)n2-c2ccc(F)cc2Br)c(F)c1 (stereo not shown) [compound 322] | 28* % | 0* % | 2* % | 0* %
22 | COc1cc(F)c(C(O)c2c(Br)nc(C)n2-c2ccc(F)cc2Br)c(F)c1 (stereo not shown) [compound 323] | 100* % | 99* % | 100* % | 100* %
